{"source": "ChEMBL document CHEMBL4316606", "about": "“Discovery of novel 2,3-dihydro-1H-inden-1-amine derivatives as selective monoamine oxidase B inhibitors” (Bioorg Med Chem Lett, 2019)", "key": {"[1]": {"target": "T1, Amine oxidase [flavin-containing] B (Homo sapiens, UniProt P27338)", "T1 sequence (P27338 whole entry)": "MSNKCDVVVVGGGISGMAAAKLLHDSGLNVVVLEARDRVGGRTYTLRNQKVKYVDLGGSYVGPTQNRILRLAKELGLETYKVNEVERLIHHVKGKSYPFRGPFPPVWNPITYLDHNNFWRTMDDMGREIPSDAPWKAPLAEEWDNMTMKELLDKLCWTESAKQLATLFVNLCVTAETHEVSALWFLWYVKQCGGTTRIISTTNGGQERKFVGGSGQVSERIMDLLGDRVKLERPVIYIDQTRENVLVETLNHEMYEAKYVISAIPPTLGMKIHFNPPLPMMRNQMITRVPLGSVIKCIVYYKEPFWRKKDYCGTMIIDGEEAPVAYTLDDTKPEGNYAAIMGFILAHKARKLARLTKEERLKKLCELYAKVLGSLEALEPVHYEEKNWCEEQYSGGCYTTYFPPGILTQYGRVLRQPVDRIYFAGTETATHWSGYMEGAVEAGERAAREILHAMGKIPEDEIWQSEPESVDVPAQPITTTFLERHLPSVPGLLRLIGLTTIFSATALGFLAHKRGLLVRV", "assay": "Inhibition of recombinant human MAOB expressed in baculovirus infected BTI insect cells using p-tyramine as substrate preincubated for 30 mins followed by substrate addition and measured over 15 mins by Amplex red reagent/horseradish peroxidase coupled fluorescence assay"}, "[2]": {"target": "T2, Amine oxidase [flavin-containing] A (Homo sapiens, UniProt P21397)", "T2 sequence (P21397 whole entry)": "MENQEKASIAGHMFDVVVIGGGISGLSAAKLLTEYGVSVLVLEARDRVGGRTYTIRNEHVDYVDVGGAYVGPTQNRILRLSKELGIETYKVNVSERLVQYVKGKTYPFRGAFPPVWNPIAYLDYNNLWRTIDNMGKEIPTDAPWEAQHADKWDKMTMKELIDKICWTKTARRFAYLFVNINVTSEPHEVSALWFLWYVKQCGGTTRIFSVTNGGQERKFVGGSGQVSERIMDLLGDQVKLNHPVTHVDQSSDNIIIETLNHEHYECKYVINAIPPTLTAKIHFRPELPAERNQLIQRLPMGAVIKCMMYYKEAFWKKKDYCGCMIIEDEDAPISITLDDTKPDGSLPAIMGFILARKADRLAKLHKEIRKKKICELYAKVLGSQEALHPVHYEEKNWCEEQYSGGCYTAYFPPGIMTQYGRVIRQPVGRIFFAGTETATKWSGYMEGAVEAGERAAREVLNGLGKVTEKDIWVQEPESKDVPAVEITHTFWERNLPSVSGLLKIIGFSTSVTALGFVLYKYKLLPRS", "assay": "Inhibition of recombinant human MAOA expressed in baculovirus infected BTI insect cells using p-tyramine as substrate preincubated for 30 mins followed by substrate addition and measured over 15 mins by Amplex red reagent/horseradish peroxidase coupled fluorescence assay"}, "Homo sapiens": {"species_on_record": "Homo sapiens", "assay": "Selectivity index, ratio of IC50 for recombinant human MAOA expressed in baculovirus infected BTI insect cells to IC50 for recombinant human MAOB expressed in baculovirus infected BTI insect cells"}}, "data": [{"smiles": "C#CCNC1CCc2c(NCc3ccccc3)cccc21", "note": "(stereo not drawn)", "values": [{"measurement": "IC50", "setting": "[1]", "result": "> 20", "unit": "µM"}]}, {"smiles": "C#CCNC1CCc2c(NCc3cccc(Br)c3)cccc21", "note": "(stereo not drawn)", "values": [{"measurement": "IC50", "setting": "[1]", "result": 0.11, "unit": "µM"}, {"measurement": "IC50", "setting": "[2]", "result": 94.3, "unit": "µM"}, {"measurement": "Ratio IC50", "setting": "Homo sapiens", "result": 857}]}, {"smiles": "C#CCNC1CCc2c(OCCc3cccc(NC(=O)c4ccc(Cl)cc4)c3)cccc21", "note": "(stereo not drawn)", "values": [{"measurement": "IC50", "setting": "[1]", "result": 0.36, "unit": "µM"}]}, {"smiles": "C#CCNC1CCc2c(OCCc3cc(NC(=O)c4ccc(Cl)cc4)ccc3Cl)cccc21", "note": "(stereo not drawn)", "values": [{"measurement": "IC50", "setting": "[1]", "result": "> 20", "unit": "µM"}]}, {"smiles": "C#CCNC1CCc2c(OCCc3cc(NC(=O)COC(C)=O)ccc3Cl)cccc21", "note": "(stereo not drawn)", "values": [{"measurement": "IC50", "setting": "[1]", "result": 0.48, "unit": "µM"}, {"measurement": "IC50", "setting": "[2]", "result": 436, "unit": "µM"}, {"measurement": "Ratio IC50", "setting": "Homo sapiens", "result": 909}]}, {"smiles": "C#CCNC1CCc2c(OCc3cccc(F)c3)cccc21", "note": "(stereo not drawn)", "values": [{"measurement": "IC50", "setting": "[1]", "result": 2.7, "unit": "µM"}]}, {"smiles": "C#CCNC1CCc2c(SCc3ccc(Cl)cc3)cccc21", "note": "(stereo not drawn)", "values": [{"measurement": "IC50", "setting": "[1]", "result": 0.18, "unit": "µM"}, {"measurement": "IC50", "setting": "[2]", "result": 0.23, "unit": "µM"}, {"measurement": "Ratio IC50", "setting": "Homo sapiens", "result": 1.2}]}, {"smiles": "C#CCNC1CCc2c(OCCc3cc(NC(=O)CO)ccc3Cl)cccc21", "note": "(stereo not drawn)", "values": [{"measurement": "IC50", "setting": "[1]", "result": 0.27, "unit": "µM"}, {"measurement": "IC50", "setting": "[2]", "result": 252, "unit": "µM"}, {"measurement": "Ratio IC50", "setting": "Homo sapiens", "result": 934}]}, {"smiles": "C#CCNC1CCc2c(OCCc3cc(NC(=O)c4ccc(F)cc4)ccc3Cl)cccc21", "note": "(stereo not drawn)", "values": [{"measurement": "IC50", "setting": "[1]", "result": 5.1, "unit": "µM"}]}, {"smiles": "C#CCNC1CCc2c(OCCc3cc(NC(C)=O)ccc3Cl)cccc21", "note": "(stereo not drawn)", "values": [{"measurement": "IC50", "setting": "[1]", "result": 0.59, "unit": "µM"}, {"measurement": "IC50", "setting": "[2]", "result": 85.2, "unit": "µM"}, {"measurement": "Ratio IC50", "setting": "Homo sapiens", "result": 144}]}, {"smiles": "C#CCNC1CCc2c(SCc3ccc(C(C)(C)C)cc3)cccc21", "note": "(stereo not drawn)", "values": [{"measurement": "IC50", "setting": "[1]", "result": "> 20", "unit": "µM"}]}, {"smiles": "C#CCNC1CCc2c(NCc3cccc(F)c3)cccc21", "note": "(stereo not drawn)", "values": [{"measurement": "IC50", "setting": "[1]", "result": 1.86, "unit": "µM"}]}, {"smiles": "C#CCNC1CCc2c(OCCc3cc(NC(=O)c4ccccc4)ccc3Cl)cccc21", "note": "(stereo not drawn)", "values": [{"measurement": "IC50", "setting": "[1]", "result": "> 20", "unit": "µM"}]}, {"smiles": "C#CCNC1CCc2c(NCc3ccc(F)cc3)cccc21", "note": "(stereo not drawn)", "values": [{"measurement": "IC50", "setting": "[1]", "result": 0.98, "unit": "µM"}]}, {"smiles": "C#CCNC1CCc2c(NCc3cccc(C)c3)cccc21", "note": "(stereo not drawn)", "values": [{"measurement": "IC50", "setting": "[1]", "result": 0.71, "unit": "µM"}]}, {"smiles": "C#CCNC1CCc2c(OCCc3cc(NC(=O)c4cccc(F)c4)ccc3Cl)cccc21", "note": "(stereo not drawn)", "values": [{"measurement": "IC50", "setting": "[1]", "result": "> 20", "unit": "µM"}]}, {"smiles": "C#CCNC1CCc2c(NCc3ccc(C)cc3)cccc21", "note": "(stereo not drawn)", "values": [{"measurement": "IC50", "setting": "[1]", "result": 0.25, "unit": "µM"}, {"measurement": "IC50", "setting": "[2]", "result": 43.1, "unit": "µM"}, {"measurement": "Ratio IC50", "setting": "Homo sapiens", "result": 172}]}, {"smiles": "C#CCNC1CCc2c(OCCc3cc(NC(=O)C(C)(C)C)ccc3F)cccc21", "note": "(stereo not drawn)", "values": [{"measurement": "IC50", "setting": "[1]", "result": "> 20", "unit": "µM"}]}, {"smiles": "C#CCNC1CCc2c(OCCc3cccc4ccccc34)cccc21", "note": "(stereo not drawn)", "values": [{"measurement": "IC50", "setting": "[1]", "result": 1.9, "unit": "µM"}]}, {"smiles": "C#CCNC1CCc2c(SCc3ccc(F)cc3)cccc21", "note": "(stereo not drawn)", "values": [{"measurement": "IC50", "setting": "[1]", "result": 0.24, "unit": "µM"}, {"measurement": "IC50", "setting": "[2]", "result": "< 0.1", "unit": "µM"}]}]}
